Among the data in patent US20170190705A1, “Compositions and Methods for Inhibiting BMP” (THE BRIGHAM AND WOMAN'S HOSPITAL, INC., priority 2014, published 2017) are inhibition values, retold here.

Holding throughout (assay type): biochemical
One experiment concerns the target YES (Homo sapiens, UniProt P07947). Nature of the experiment: Kinome profiling YES. The conditions noted are these: read-out: Inhibitory activity YES; for inhibition at 0.1 µM: 100 nM. The procedure: (§1) . The kinome-wide selectivity was determined following the methods previously reported by Mohedas et al., ACS Chem Biol 2013, 8, 1291-1302 and Sanvitale et al., PLoS One 2013, 8, e62721.

The target in another experiment is SRC (Homo sapiens, UniProt P12931). Nature of the experiment: Kinome profiling SRC. To be noted: read-out: Inhibitory activity SRC; for inhibition at 0.1 µM: 100 nM. The procedure: as §1
Sequence of SRC (P12931 whole entry): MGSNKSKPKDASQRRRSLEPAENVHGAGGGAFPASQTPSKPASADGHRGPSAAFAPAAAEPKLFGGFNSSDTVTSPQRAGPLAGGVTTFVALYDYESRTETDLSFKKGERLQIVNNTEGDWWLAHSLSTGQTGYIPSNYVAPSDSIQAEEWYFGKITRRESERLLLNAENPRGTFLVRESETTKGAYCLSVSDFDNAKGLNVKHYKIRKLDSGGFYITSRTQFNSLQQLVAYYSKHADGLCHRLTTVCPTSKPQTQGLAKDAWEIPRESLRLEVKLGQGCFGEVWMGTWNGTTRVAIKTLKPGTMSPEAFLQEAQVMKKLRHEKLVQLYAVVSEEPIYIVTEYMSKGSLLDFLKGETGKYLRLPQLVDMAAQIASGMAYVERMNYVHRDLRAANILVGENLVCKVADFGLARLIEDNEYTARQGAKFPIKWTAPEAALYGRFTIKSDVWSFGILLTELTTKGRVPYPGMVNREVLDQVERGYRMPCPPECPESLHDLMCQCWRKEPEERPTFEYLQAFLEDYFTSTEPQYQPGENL
A further experiment deals with T1, TYRO3 (Homo sapiens, UniProt Q06418).
T1 sequence (Q06418 41-890): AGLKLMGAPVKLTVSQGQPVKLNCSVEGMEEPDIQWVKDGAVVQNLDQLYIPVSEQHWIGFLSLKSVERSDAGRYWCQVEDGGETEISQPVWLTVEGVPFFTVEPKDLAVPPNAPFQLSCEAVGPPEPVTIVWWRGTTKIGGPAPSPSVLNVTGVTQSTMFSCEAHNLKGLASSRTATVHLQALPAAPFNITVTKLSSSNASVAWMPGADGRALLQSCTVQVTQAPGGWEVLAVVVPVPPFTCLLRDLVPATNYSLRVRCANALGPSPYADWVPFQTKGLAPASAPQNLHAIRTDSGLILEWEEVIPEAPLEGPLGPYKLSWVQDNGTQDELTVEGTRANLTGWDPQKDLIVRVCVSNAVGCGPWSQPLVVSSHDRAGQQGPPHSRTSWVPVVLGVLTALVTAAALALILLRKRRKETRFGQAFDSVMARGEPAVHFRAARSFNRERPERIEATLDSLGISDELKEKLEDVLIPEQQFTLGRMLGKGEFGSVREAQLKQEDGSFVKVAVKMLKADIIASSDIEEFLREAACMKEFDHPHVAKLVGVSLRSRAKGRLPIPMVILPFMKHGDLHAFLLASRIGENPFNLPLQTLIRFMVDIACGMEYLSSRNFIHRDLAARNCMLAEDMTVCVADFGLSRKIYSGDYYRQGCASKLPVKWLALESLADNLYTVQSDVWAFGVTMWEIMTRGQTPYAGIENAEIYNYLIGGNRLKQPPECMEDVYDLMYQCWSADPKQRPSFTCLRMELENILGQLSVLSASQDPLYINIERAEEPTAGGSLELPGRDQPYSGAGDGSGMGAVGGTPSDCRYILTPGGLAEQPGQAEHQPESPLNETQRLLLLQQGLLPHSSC
Nature of the experiment: Kinome profiling TYRO3. To be noted: read-out: Inhibitory activity TYRO3; for inhibition at 0.1 µM: 100 nM. As for the experimental part:
as §1

In another experiment the target is CK1-γ1 (Homo sapiens, UniProt Q9HCP0). Nature of the experiment: Kinome profiling CK1-γ1. The conditions noted are these: read-out: Inhibitory activity CK1-γ1; for inhibition at 0.1 µM: 100 nM. As for the experimental part: as §1
Sequence of CK1-γ1 (Q9HCP0 whole entry): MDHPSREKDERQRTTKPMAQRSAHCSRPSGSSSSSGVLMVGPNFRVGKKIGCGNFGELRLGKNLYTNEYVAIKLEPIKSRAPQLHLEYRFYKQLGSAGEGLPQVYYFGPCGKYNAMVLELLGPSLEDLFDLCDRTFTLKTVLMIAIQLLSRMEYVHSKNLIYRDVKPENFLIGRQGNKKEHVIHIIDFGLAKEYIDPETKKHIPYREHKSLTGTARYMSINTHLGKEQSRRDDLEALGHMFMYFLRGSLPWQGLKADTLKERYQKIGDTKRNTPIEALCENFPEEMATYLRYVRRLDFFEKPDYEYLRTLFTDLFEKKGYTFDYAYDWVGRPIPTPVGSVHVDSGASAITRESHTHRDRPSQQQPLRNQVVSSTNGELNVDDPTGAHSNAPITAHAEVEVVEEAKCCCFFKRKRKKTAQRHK
In another experiment the target is ROS (Homo sapiens, UniProt P08922). Nature of the experiment: Kinome profiling ROS. To be noted: read-out: Inhibitory activity ROS; for inhibition at 0.1 µM: 100 nM. As for the experimental part:
as §1

The next experiment has as its target T2, NEK9 (Homo sapiens, UniProt Q8TD19).
T2 sequence (Q8TD19 1-979): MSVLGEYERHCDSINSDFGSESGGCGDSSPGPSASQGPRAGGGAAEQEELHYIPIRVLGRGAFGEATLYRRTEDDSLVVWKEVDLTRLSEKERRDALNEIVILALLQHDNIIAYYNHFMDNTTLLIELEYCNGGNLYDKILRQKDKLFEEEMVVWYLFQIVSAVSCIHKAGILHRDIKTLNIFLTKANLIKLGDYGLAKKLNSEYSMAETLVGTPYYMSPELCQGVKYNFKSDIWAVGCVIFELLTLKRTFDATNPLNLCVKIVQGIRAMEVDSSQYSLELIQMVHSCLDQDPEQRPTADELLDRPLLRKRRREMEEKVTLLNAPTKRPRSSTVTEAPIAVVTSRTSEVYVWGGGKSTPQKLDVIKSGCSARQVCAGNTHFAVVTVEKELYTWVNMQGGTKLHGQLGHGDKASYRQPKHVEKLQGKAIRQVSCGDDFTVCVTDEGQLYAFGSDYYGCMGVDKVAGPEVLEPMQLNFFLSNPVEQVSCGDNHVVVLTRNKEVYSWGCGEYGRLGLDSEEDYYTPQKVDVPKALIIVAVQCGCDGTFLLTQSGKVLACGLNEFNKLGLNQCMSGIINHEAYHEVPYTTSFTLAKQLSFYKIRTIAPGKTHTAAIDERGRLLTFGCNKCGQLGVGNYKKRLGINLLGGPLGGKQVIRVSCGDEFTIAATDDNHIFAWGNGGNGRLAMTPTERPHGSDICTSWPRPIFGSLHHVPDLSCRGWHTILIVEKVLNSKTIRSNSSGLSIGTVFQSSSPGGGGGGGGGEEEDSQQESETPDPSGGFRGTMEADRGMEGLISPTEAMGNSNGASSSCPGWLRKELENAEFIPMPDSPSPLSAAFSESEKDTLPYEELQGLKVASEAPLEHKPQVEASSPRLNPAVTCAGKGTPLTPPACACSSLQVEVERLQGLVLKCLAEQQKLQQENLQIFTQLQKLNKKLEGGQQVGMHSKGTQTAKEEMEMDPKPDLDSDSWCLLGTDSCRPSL
Nature of the experiment: Kinome profiling NEK9. To be noted: read-out: Inhibitory activity NEK9; for inhibition at 0.1 µM: 100 nM. The procedure:
as §1

A further experiment has as its target NEK7 (Homo sapiens, UniProt Q8TDX7). Nature of the experiment: Kinome profiling NEK7. The conditions noted are these: read-out: Inhibitory activity NEK7; for inhibition at 0.1 µM: 100 nM. As for the experimental part:
as §1

The next experiment deals with T3, P38γ (Homo sapiens, UniProt P53778).
T3 sequence (P53778 1-367): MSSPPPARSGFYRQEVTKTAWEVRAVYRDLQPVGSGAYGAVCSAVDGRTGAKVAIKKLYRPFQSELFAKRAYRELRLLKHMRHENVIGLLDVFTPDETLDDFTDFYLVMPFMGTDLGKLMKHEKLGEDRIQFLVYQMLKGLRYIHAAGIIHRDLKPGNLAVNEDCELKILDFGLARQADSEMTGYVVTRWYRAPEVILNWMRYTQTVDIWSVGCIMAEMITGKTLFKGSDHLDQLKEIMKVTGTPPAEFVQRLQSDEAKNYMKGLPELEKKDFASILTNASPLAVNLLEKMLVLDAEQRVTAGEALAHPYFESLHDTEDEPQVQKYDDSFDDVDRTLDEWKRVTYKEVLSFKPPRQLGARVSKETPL
Nature of the experiment: Kinome profiling P38γ. To be noted: read-out: Inhibitory activity P38γ; for inhibition at 0.1 µM: 100 nM. The procedure: as §1

The next experiment addresses CDK3/cyclinE (Homo sapiens, UniProt Q00526). Nature of the experiment: Kinome profiling CDK3/cyclinE. The conditions noted are these: read-out: Inhibitory activity CDK3/cyclinE; for inhibition at 0.1 µM: 100 nM. As for the experimental part:
as §1

Sequence of NEK7 (Q8TDX7 whole entry): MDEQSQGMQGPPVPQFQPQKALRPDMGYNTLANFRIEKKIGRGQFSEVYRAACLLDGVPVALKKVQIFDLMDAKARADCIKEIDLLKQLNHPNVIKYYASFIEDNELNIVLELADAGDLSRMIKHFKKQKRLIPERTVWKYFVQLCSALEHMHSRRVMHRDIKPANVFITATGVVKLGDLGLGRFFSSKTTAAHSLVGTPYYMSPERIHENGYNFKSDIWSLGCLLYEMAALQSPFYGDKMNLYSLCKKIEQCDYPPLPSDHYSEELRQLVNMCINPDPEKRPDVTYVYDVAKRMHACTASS
Sequence of CDK3/cyclinE (Q00526 whole entry): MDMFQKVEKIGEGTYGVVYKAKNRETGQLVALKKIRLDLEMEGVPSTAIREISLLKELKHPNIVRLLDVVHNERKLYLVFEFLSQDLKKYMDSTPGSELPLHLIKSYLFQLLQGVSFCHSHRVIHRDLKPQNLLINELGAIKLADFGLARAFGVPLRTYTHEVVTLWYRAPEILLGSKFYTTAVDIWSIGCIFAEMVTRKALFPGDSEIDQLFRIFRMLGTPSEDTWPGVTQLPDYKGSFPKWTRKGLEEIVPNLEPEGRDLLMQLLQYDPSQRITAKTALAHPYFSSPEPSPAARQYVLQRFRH
Sequence of CDK3/cyclinE (P24864 whole entry partner): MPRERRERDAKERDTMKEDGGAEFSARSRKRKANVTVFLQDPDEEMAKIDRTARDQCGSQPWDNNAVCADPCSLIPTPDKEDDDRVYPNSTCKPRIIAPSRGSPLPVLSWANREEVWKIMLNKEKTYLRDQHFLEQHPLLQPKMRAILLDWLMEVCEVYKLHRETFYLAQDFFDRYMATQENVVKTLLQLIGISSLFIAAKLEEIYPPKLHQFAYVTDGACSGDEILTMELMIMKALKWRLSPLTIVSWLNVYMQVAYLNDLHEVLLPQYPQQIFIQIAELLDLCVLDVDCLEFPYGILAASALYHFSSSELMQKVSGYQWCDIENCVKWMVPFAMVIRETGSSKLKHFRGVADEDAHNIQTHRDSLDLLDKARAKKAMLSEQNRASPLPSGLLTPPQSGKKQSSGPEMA
Sequence of ROS (P08922 28-2347): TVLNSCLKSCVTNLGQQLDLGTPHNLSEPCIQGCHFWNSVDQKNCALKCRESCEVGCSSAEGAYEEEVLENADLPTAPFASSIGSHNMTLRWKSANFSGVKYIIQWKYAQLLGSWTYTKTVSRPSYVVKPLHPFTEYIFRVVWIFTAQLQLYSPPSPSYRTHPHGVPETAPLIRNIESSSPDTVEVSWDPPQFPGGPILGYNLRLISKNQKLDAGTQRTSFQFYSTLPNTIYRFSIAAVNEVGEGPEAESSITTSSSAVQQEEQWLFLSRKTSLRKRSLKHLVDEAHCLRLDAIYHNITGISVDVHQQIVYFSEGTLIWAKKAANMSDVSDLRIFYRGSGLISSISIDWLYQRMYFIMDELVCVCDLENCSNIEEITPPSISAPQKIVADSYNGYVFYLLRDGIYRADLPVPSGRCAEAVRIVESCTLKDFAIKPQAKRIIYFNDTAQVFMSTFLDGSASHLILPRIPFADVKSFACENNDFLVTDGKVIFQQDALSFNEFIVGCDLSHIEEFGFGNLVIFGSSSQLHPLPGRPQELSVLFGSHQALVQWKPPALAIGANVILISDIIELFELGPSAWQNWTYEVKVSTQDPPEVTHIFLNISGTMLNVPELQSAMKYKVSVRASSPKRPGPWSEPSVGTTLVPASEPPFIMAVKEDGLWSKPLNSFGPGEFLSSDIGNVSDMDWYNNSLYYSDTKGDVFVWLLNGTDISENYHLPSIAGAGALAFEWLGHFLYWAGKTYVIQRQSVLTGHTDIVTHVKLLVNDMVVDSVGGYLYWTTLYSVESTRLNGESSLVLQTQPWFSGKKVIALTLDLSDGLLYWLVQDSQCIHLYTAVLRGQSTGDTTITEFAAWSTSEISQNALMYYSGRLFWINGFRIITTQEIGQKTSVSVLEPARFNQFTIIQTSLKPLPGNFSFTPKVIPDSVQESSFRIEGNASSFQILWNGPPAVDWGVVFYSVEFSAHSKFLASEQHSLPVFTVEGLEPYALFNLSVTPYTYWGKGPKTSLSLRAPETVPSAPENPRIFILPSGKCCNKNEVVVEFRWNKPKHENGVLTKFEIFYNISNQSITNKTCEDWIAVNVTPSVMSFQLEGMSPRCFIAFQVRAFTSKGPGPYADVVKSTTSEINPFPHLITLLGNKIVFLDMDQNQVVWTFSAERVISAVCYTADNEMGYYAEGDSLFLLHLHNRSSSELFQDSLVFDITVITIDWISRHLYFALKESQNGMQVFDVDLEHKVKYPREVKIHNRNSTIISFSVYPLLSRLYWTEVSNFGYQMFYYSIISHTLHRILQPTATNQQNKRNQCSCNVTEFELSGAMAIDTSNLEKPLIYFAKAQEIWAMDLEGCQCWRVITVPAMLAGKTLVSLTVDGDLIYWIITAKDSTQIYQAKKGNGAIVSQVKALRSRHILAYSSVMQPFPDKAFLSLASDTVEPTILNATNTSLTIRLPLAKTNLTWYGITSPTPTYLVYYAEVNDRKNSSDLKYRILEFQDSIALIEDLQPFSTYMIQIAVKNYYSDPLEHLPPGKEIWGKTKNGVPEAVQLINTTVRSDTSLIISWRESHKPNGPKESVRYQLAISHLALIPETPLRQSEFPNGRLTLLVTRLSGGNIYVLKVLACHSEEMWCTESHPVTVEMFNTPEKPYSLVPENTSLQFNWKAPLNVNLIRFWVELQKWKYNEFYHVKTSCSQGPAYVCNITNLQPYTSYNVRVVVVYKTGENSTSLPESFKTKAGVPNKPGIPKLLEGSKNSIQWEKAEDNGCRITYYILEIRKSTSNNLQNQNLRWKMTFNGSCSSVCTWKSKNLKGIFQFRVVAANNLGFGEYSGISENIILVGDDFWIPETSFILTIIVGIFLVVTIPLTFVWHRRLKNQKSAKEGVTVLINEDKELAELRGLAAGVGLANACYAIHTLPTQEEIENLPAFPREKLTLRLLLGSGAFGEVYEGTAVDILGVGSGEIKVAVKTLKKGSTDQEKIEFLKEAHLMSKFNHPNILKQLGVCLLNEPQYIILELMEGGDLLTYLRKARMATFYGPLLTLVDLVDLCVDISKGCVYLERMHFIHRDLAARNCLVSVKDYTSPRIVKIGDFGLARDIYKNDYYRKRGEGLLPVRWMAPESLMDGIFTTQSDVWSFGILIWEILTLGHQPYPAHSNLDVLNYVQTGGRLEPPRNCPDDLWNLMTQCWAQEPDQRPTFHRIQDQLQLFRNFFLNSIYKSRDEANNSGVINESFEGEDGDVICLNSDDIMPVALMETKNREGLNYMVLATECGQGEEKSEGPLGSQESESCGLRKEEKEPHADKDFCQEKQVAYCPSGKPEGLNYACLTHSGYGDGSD
Sequence of YES (P07947 whole entry): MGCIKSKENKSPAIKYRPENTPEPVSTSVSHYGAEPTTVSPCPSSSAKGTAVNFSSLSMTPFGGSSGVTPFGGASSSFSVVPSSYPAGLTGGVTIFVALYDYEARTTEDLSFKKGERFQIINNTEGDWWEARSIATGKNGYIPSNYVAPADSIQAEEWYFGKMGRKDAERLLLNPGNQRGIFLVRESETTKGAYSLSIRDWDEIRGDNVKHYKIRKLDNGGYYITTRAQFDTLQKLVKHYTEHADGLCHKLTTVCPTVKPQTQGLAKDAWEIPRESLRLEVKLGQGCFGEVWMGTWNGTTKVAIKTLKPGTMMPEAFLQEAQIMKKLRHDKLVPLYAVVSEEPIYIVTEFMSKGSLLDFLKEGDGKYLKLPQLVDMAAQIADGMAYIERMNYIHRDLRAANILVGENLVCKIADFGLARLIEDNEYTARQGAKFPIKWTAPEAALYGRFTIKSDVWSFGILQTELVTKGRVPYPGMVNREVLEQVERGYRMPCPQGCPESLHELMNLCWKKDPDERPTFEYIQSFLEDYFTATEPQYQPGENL

With `COc1cc(-c2cc(-c3ccc(N4CCNCC4)cc3)cnc2C)cc(OC)c1OC` [Compound 10, 1-(4-(6-methyl-5-(3,4,5-trimethoxyphenyl)pyridin-3-yl)phenyl)piperazine], the inhibition at 0.1 µM on YES was 11%; on SRC, 8%; on TYRO3, 4%; on CK1-γ1, 1%; at ROS, 2%; at NEK9, 1%. Moreover, the inhibition at 0.1 µM at NEK7 was 4%; on P38γ, -2%; on CDK3/cyclinE, 2%. In addition, the inhibition at 1 µM on YES came out at 47%; at SRC, 23%; on TYRO3, 21%; at CK1-γ1, 6%; on ROS it was 2%; at NEK9, 1%. Moreover, the values for the inhibition at 1 µM on NEK7, on P38γ and on CDK3/cyclinE were 3%, 1% and 2%, respectively.
Turning to `COc1cc(-c2cc(-c3ccc(N4CCNCC4)cc3)cnc2N)cc(OC)c1OC` [Compound 15, 5-(4-(piperazin-1-yl)phenyl)-3-(3,4,5-trimethoxyphenyl)pyridin-2-amine], the inhibition at 0.1 µM on YES was determined as 41%; at SRC, 40%; on TYRO3 it was 23%; on CK1-γ1, 4%; on ROS, 1%; on NEK9, 3%. The inhibition at 0.1 µM at NEK7 was 9%; on P38γ, 2%; at CDK3/cyclinE it was 0%. Besides, the inhibition at 1 µM at YES is 82%; at SRC, 81%; at TYRO3, 75%; at CK1-γ1, 17%; on ROS it was 7%; on NEK9, 6%. Moreover, the inhibition at 1 µM on NEK7 worked out at 2%; on P38γ, 1%; on CDK3/cyclinE it was 0%.
